Patent US12012411B2, “Viral replication inhibitors” (Katholieke Universiteit Leuven, priority 2011, dated 2024)
Where two headings read alike, the source gives them in different places.

Legend:
DENV-2 NGC = experiment: Antiviral activity against DENV-2 NGC in Vero-B cells (viral RNA load by RT-qPCR); format: cell-based, Dengue virus; conditions: DENV-2 in Vero-B cells, inhibition of viral RNA replication by 50% (Table 3)
[1] = test system: DENV-4 strain Dak HD 34 460; experiment: Antiviral activity against DENV-4 in Vero-B cells (viral RNA load by RT-qPCR); format: cell-based, Dengue virus; conditions: Dengue virus, DENV4, Vero B
[2] = test system: DENV-1 Djibouti strain D1/H/IMTSSA/98/606; experiment: Antiviral activity against DENV-1 in Vero-B cells (viral RNA load by RT-qPCR); format: cell-based, Dengue virus
in vitro = conditions: African green monkey; for CC50 at 4 days: uninfected quiescent Vero-B cells
[3] = test system: DENV-3 strain H87 prototype; experiment: Antiviral activity against DENV-3 in Vero-B cells (viral RNA load by RT-qPCR); format: cell-based, Dengue virus

SMILES	EC50 (DENV-2 NGC)	EC50 [1]	EC50 [2]	CC50 at 4 days (in vitro)	EC50 [3]	EC50 (DENV-2 NGC; Dengue virus, DENV2, Vero B)	EC50 ([2]; Dengue virus, DENV1, Vero B)	EC50 ([3]; Dengue virus, DENV3, Vero B)	CC50 (in vitro)
COc1cncc(NC(C(=O)c2c[nH]c3ccccc23)c2ccccc2)c1 (single isomer, unassigned) [CPD-299]	0.02 µM	3.65 µM	0.5 µM	62 µM	0.78 µM	–	–	–	–
COc1cncc(NC(C(=O)c2c[nH]c3ccc(F)cc23)c2ccc(OC)nc2)c1 (single isomer, unassigned) [CPD-322]	0.02 µM	3 µM	0.3 µM	51 µM	0.32 µM	–	–	–	–
COc1cc(NC(C(=O)c2c[nH]c3ccccc23)c2ccccc2)ccc1Cl (stereo not shown) [CPD-004]	–	–	–	11 µM	–	0.19 µM	4.53 µM	8.55 µM	–
COc1cccc(NC(C(=O)c2c[nH]c3ccccc23)c2cc(C)on2)c1 (stereo not shown) [CPD-025]	–	11.8 µM	–	48 µM	–	0.68 µM	7.89 µM	13 µM	–
COc1cccc(NC(C(=O)c2c[nH]c3ccccc23)c2cncnc2)c1 (stereo not shown) [CPD-029]	–	–	–	65 µM	–	0.84 µM	2.82 µM	–	–
COc1cccc(NC(C(=O)c2c[nH]c3ccccc23)c2cn3ccccc3n2)c1 (stereo not shown) [CPD-030]	–	13.2 µM	–	> 126 µM	–	0.09 µM	4.8 µM	6.24 µM	–
COc1cccc(NC(C(=O)c2c[nH]c3ccccc23)c2cccc3ccnn23)c1 (stereo not shown) [CPD-043]	–	4.76 µM	–	> 126 µM	–	0.29 µM	3.38 µM	5.88 µM	–
COc1cc(NC(C(=O)c2c[nH]c3ccccc23)c2ccccc2)ccn1 (stereo not shown) [CPD-045]	–	11.1 µM	–	> 139 µM	–	0.06 µM	0.64 µM	0.87 µM	–
COc1cccc(NC(C(=O)c2cn(C)c3ccccc23)c2ccccc2)c1 (stereo not shown) [CPD-049]	–	2.27 µM	–	> 134 µM	–	0.08 µM	2.21 µM	10.5 µM	–
CN(C)C(=O)c1cccc(NC(C(=O)c2c[nH]c3ccccc23)c2ccccc2)c1 (stereo not shown) [CPD-051]	–	32.6 µM	–	> 125 µM	–	2.47 µM	5.76 µM	24.2 µM	–
COc1cccc(NC(C(=O)c2c[nH]c3ccccc23)c2ccc(OC)nc2)c1 (stereo not shown) [CPD-055]	–	4.44 µM	–	50 µM	–	0.07 µM	1.86 µM	3.38 µM	–
COc1cccc(NC(C(=O)N2CCc3ccccc32)c2ccccc2)c1 (stereo not shown) [CPD-056]	–	5.92 µM	–	> 139 µM	–	0.45 µM	10.6 µM	69.2 µM	–
COc1cccc(NC(C(=O)c2c[nH]c3c(Cl)cccc23)c2ccccc2)c1 (stereo not shown) [CPD-084]	–	3.09 µM	–	> 127 µM	–	0.03 µM	< 0.5 µM	2.38 µM	–
COc1cccc(NC(C(=O)c2c[nH]c3ccc(Cl)cc23)c2ccccc2)c1 (stereo not shown) [CPD-086]	–	3.57 µM	–	12 µM	–	0.04 µM	0.97 µM	1.05 µM	–
COc1cc(NC(C(=O)c2c[nH]c3ccccc23)c2ccccc2)nc(OC)n1 (stereo not shown) [CPD-087]	–	–	–	> 128 µM	–	0.8 µM	6.05 µM	–	–
COc1cccc(NC(C(=O)c2c[nH]c3ccc(OC)cc23)c2ccccc2)c1 (stereo not shown) [CPD-092]	–	6.73 µM	–	19 µM	–	0.1 µM	–	0.93 µM	–
COc1cccc(NC(C(=O)c2cn(CCO)c3ccccc23)c2ccccc2)c1 (stereo not shown) [CPD-104]	–	14.9 µM	–	–	–	0.35 µM	3.85 µM	24 µM	65 µM
COc1cccc(NC(C(=O)c2c[nH]c3cc(Cl)ccc23)c2cc(C)on2)c1 (stereo not shown) [CPD-116]	–	–	–	13 µM	–	0.14 µM	4.19 µM	9.3 µM	–
COc1cccc(NC(C(=O)c2c[nH]c3c(Cl)cccc23)c2ccc(C#N)cc2)c1 (stereo not shown) [CPD-120]	–	–	–	11 µM	–	0.02 µM	2.31 µM	5.18 µM	–
COc1cccc(NC(C(=O)c2c[nH]c3cc(C)ccc23)c2ccccc2)c1 (stereo not shown) [CPD-122]	–	–	–	16 µM	–	0.02 µM	3.64 µM	8.25 µM	–
COc1cccc(NC(C(=O)c2cn(CCCO)c3ccccc23)c2ccccc2)c1 (stereo not shown) [CPD-128]	–	–	–	–	–	0.56 µM	7.5 µM	18.4 µM	63 µM
COc1cccc(NC(C(=O)c2c[nH]c3ccccc23)c2c(F)cc(C#N)cc2F)c1 (stereo not shown) [CPD-133]	–	–	–	19 µM	–	0.04 µM	2.25 µM	4.17 µM	–
COC(=O)c1ccc2[nH]cc(C(=O)C(Nc3cccc(OC)c3)c3ccccc3)c2c1 (stereo not shown) [CPD-142]	–	–	–	13 µM	–	0.1 µM	1.71 µM	3.97 µM	–
COc1cccc(NC(C(=O)c2c[nH]c3ccccc23)c2ccccc2F)c1 (stereo not shown) [CPD-144]	–	–	–	20 µM	–	0.06 µM	2.89 µM	3.08 µM	–
COc1cccc(NC(C(=O)c2c[nH]c3c(F)cccc23)c2ccc(OC)nc2)c1 (stereo not shown) [CPD-155]	–	–	–	15 µM	–	0.08 µM	2.94 µM	–	–
CCOc1ccc(NC(C(=O)c2c[nH]c3ccccc23)c2ccccc2)cc1OC (stereo not shown) [CPD-173]	–	–	–	69 µM	–	0.02 µM	30.7 µM	–	–

SMILES	EC50 (DENV-2 NGC)	EC50 [1]	EC50 [2]	CC50 at 4 days (in vitro)	EC50 [3]	EC50 (DENV-2 NGC; Dengue virus, DENV2, Vero B)	EC50 ([2]; Dengue virus, DENV1, Vero B)	EC50 ([3]; Dengue virus, DENV3, Vero B)	CC50 (in vitro)
COc1cccc(NC(C(=O)c2c[nH]c3ncccc23)c2ccccc2)c1 (stereo not shown) [CPD-194]	–	18.7 µM	–	61 µM	–	0.94 µM	–	–	–
COc1cccc(NC(C(=O)c2cn(S(=O)(=O)C3CCOC3)c3ccccc23)c2ccccc2)c1 (stereo not shown) [CPD-208]	–	6.95 µM	–	> 102 µM	–	0.37 µM	–	6.65 µM	–
COc1cc(NC(C(=O)c2cn(CCCO)c3ccccc23)c2ccccc2)cc(OC)c1 (stereo not shown) [CPD-210]	–	–	–	–	–	0.2 µM	1.03 µM	–	13 µM
COc1cccc(NC(C(=O)c2cn(S(C)(=O)=O)c3ccc(F)cc23)c2ccccc2)c1 (stereo not shown) [CPD-212]	–	2.64 µM	–	> 110 µM	–	0.42 µM	–	5.9 µM	–
COc1cccc(NC(C(=O)c2c[nH]c3ccc(CO)cc23)c2ccccc2)c1 (stereo not shown) [CPD-219]	–	–	–	86 µM	–	0.52 µM	–	22.1 µM	–
COc1cccc(NC(C(=O)c2c[nH]c3nc(C)ccc23)c2ccccc2)c1 (stereo not shown) [CPD-225]	–	1.16 µM	–	> 134 µM	–	0.38 µM	–	2.99 µM	–
COc1cccc(NC(C(=O)c2c[nH]c3ncc(F)cc23)c2ccccc2)c1 (stereo not shown) [CPD-227]	–	7.45 µM	–	> 124 µM	–	0.27 µM	–	2.91 µM	–
COc1cccc(NC(C(=O)c2c[nH]c3cc(N4CCOCC4)ccc23)c2ccccc2)c1 (stereo not shown) [CPD-237]	–	8.31 µM	–	> 113 µM	–	1.35 µM	–	–	–
CCOc1ncc(NC(C(=O)c2c[nH]c3ccccc23)c2ccccc2)cc1OC (stereo not shown) [CPD-258]	–	9.42 µM	–	72 µM	–	1.47 µM	–	–	–
COc1cccc(NC(C(=O)c2nn(C)c3ccc(F)cc23)c2ccccc2)c1 (stereo not shown) [CPD-270]	–	–	–	> 128 µM	–	0.13 µM	1.57 µM	1.87 µM	–
COc1cccc(NC(C(=O)c2c[nH]c3cc(F)ccc23)c2cnc(OC)cn2)c1 (stereo not shown) [CPD-297]	–	6.68 µM	–	22 µM	–	0.03 µM	–	0.57 µM	–
COc1cccc(NC(C(=O)c2nn(CCO)c3ccccc23)c2ccccc2)c1 (stereo not shown) [CPD-303]	–	–	–	–	–	0.52 µM	3.26 µM	–	71 µM
COc1cc(CO)cc(NC(C(=O)c2cn(C)c3ccccc23)c2ccccc2)c1 (stereo not shown) [CPD-307]	–	11.5 µM	–	> 124 µM	–	0.18 µM	2.43 µM	–	–
COc1cc(NC(C(=O)c2c[nH]c3c(C)cccc23)c2ccc(F)cc2)cc(OC)c1 (stereo not shown) [CPD-341]	–	3.36 µM	–	12 µM	–	0.002 µM	–	0.05 µM	–
COc1cc(NC(C(=O)c2c[nH]c3ccccc23)c2cccnc2)cc(OCCO)c1 (stereo not shown) [CPD-343]	–	–	–	> 119 µM	–	0.19 µM	–	3.11 µM	–
COc1cc(CO)cc(NC(C(=O)c2c[nH]c3cc(F)ccc23)c2cccnc2)c1 (stereo not shown) [CPD-344]	–	25.9 µM	–	94 µM	–	0.09 µM	–	0.79 µM	–
COc1cc(NC(C(=O)c2c[nH]c3ccccc23)c2ccccc2)c(F)c(OC)c1 (stereo not shown) [CPD-345]	–	2.94 µM	–	106 µM	–	0.21 µM	–	1.73 µM	–
COc1cc(NC(C(=O)c2c[nH]c3ccc(F)cc23)c2ccccc2)cc(OCCO)c1 (stereo not shown) [CPD-355]	–	6.17 µM	–	44 µM	–	0.03 µM	–	0.3 µM	–
COc1cc(O)cc(NC(C(=O)c2c[nH]c3ccccc23)c2ccccc2)c1 (stereo not shown) [CPD-359]	–	5.48 µM	–	52 µM	–	0.1 µM	–	–	–
COc1cc(NC(C(=O)c2c[nH]c3c(CCN(C)C)cccc23)c2ccccc2)cc(OC)c1 (stereo not shown) [CPD-365]	–	–	–	12 µM	–	2.03 µM	–	–	–
O=C(c1c[nH]c2ccccc12)C(Nc1cccc(O)c1)c1ccccc1 (stereo not shown) [CPD-366]	–	–	–	78 µM	–	0.26 µM	–	–	–
CCOC(=O)CCCOc1cc(NC(C(=O)c2c[nH]c3ccccc23)c2ccccc2)cc(OC)c1 (stereo not shown) [CPD-367]	–	–	–	> 103 µM	–	0.04 µM	–	–	–
COc1cc(NC(C(=O)c2c[nH]c3ccccc23)c2ccc(C)cc2)cc(OCCO)c1 (stereo not shown) [CPD-369]	–	–	–	11 µM	–	0.01 µM	–	–	–
COc1cc(NC(C(=O)c2c[nH]c3ccc(CCO)cc23)c2ccccc2)cc(OC)c1 (stereo not shown) [CPD-370]	–	–	–	66 µM	–	0.06 µM	–	–	–
COc1cc(NC(C(=O)c2c[nH]c3c(CCO)cccc23)c2ccc(F)cc2)cc(OC)c1 (stereo not shown) [CPD-371]	–	–	–	12 µM	–	0.03 µM	–	–	–
